Values quoted from earlier work, collected in patent publication US20220395489A1, “THERAPEUTIC APPROACH FOR TREATING INFLAMMATORY BOWEL DISEASE” (THE REGENTS OF THE UNIVERSITY OF CALIFORNIA, priority 2019, published 2022).
Non-standard residues stand in square brackets, D forms with d. Residues, ends and D or L forms follow the SMILES beside them. *: point of attachment. Sta = CC(C)C[C@H](N)[C@@H](O)CC(=O)O; Isovaleryl = CC(C)CC(=O)*

Experiments:
[1] = water
[2] = low pH values, compared with PMSF
[3] = system: pepsin

| SMILES | solubility [1] | stability [2] | ability to inhibit pepsin [3] |
| --- | --- | --- | --- |
| Cl.NCCc1ccc(S(=O)(=O)F)cc1 [AEBSF, 4-(2-aminoethyl)benzenesulfonyl fluoride hydrochloride] | water-soluble | more stable | – |
| CC(C)CC(=O)N[C@H](C(=O)N[C@H](C(=O)N[C@@H](CC(C)C)[C@@H](O)CC(=O)N[C@@H](C)C(=O)N[C@@H](CC(C)C)[C@@H](O)CC(=O)O)C(C)C)C(C)C [Pepstatin, Isovaleryl-Val-Val-Sta-Ala-Sta] (Isovaleryl-VV[Sta]A[Sta]-OH) | – | – | picomolar concentrations |
